In ChEMBL document CHEMBL1201862, “PubChem BioAssay data set” (2004):
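A five-concentration, 48-hour dose response in 96-well plates underlies each endpoint, interpolated linearly between surrounding concentrations. GI50: concentration for 50% inhibition of growth.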 Calls of active or inactive are those of the source. No stated cut-off is given here; in the data, active = GI50 up to about 1.1 µM and inactive = higher.

Assays:
Assay in all cases: NCI tumour cell line growth inhibition, 48 h
KM-20L2 = system: KM-20L2
DMS-273 = system: DMS-273
LXFL 529 = system: LXFL 529
XF498 = system: XF498
DMS-114 = system: DMS-114
SNB-78 = system: SNB-78
HOP-18 = system: HOP-18
DLD-1 = system: DLD-1
RXF 631 = system: RXF 631

With CN(CCN(C)C(=O)CCn1cc(F)c(=O)[nH]c1=O)C(=O)CCn1cc(F)c(=O)[nH]c1=O the GI50 (KM-20L2) was > 100 µM (inactive), the GI50 (DMS-273) was > 100 µM (inactive) and the GI50 (LXFL 529) was > 100 µM (inactive). For the same compound, the GI50 (XF498) was > 100 µM (inactive) and the GI50 (DMS-114) was > 100 µM (inactive).

In the case of COC(=O)[C@@H]1CSC(=S)N1C(=O)C[C@H]1CC=CC[C@H]1CC(=O)Sc1ccccc1, the GI50 (KM-20L2) is reported as 20.9 µM (inactive), the GI50 (SNB-78) is reported as 22.3 µM (inactive) and the GI50 (HOP-18) is reported as 29.8 µM (inactive). For the same compound, the GI50 (DMS-273) was 21.7 µM (inactive), the GI50 (LXFL 529) was 15.3 µM (inactive) and the GI50 (XF498) was 16.5 µM (inactive). The GI50 (DLD-1) was 17 µM (inactive).

For CC(=O)OCC(OC(C)=O)C(OC(C)=O)C(OC(C)=O)C(=O)CNn1c(-c2ccc(C)cc2)nc2ccccc2c1=O (stereo not drawn), the GI50 (KM-20L2) was > 100 µM (inactive), the GI50 (SNB-78) was > 100 µM (inactive) and the GI50 (DMS-273) was > 100 µM (inactive). The GI50 (LXFL 529) was > 100 µM (inactive), the GI50 (XF498) was 16.5 µM (inactive) and the GI50 (DMS-114) was 54.1 µM (inactive).

With Nc1nc(=O)c(/N=N/c2ccccc2)c(N)[nH]1 the GI50 (KM-20L2) was 59.2 µM (inactive), the GI50 (SNB-78) was 19.6 µM (inactive) and the GI50 (HOP-18) was 38 µM (inactive). For the same compound, the GI50 (DMS-273) was 37.2 µM (inactive), the GI50 (XF498) was 60.1 µM (inactive) and the GI50 (DMS-114) was 25.6 µM (inactive). The GI50 (DLD-1) was 43.1 µM (inactive).

For CCOC(=O)c1s/c(=N\Nc2nc3ccccc3cc2C2OCCO2)n(Cc2ccccc2)c1C, the GI50 (KM-20L2) was > 100 µM (inactive), the GI50 (SNB-78) was > 100 µM (inactive) and the GI50 (HOP-18) was > 100 µM (inactive). For the same compound, the GI50 (DMS-273) was > 100 µM (inactive), the GI50 (LXFL 529) was > 100 µM (inactive) and the GI50 (XF498) was > 100 µM (inactive). For the same compound, the GI50 (DMS-114) was > 100 µM (inactive), the GI50 (DLD-1) was > 100 µM (inactive) and the GI50 (RXF 631) was > 100 µM (inactive).

O=C1CC2CCN(C(=O)c3ccccc3)CC2CCN1.O=C1CCC2CC(C(=O)c3ccccc3)CCC2CN1 (stereo not drawn) was tested, and the GI50 (KM-20L2) was > 100 µM (inactive), the GI50 (SNB-78) was > 100 µM (inactive) and the GI50 (HOP-18) was > 100 µM (inactive). The GI50 (DMS-273) was > 100 µM (inactive), the GI50 (LXFL 529) was > 100 µM (inactive) and the GI50 (DMS-114) was > 100 µM (inactive). The GI50 (DLD-1) was > 100 µM (inactive).

In the case of C=CCc1cc(-c2cc(CC=C)c(O)c(CN(CCCl)CCCl)c2)cc(CN(CCCl)CCCl)c1O, the GI50 (KM-20L2) is reported as 16.6 µM (inactive), the GI50 (SNB-78) is reported as 35.4 µM (inactive) and the GI50 (HOP-18) is reported as 25.2 µM (inactive). The GI50 (DMS-273) was 7.83 µM (inactive), the GI50 (LXFL 529) was 12.2 µM (inactive) and the GI50 (XF498) was > 10 µM (inactive). For the same compound, the GI50 (DLD-1) was 16.4 µM (inactive) and the GI50 (RXF 631) was 14.1 µM (inactive).

With CC(=O)O[C@@]12CO[C@@H]1C[C@@H](O)[C@@]1(C)C(=O)[C@H](O)C3=C(C)[C@@H](OC(=O)[C@H](O)[C@@H](NC(=O)c4ccccc4)c4ccccc4)C[C@@](O)([C@@H](OC(=O)c4ccccc4)C12)C3(C)C (stereo partly drawn) the GI50 (KM-20L2) was 0.0134 µM (active), the GI50 (DMS-273) was < 0.01 µM (active) and the GI50 (DMS-114) was < 0.01 µM (active).

With O=C(N/C(=C\c1ccc2c(c1)OCO2)c1nc2ccccc2[nH]1)c1ccccc1 the GI50 (KM-20L2) was 33.7 µM (inactive), the GI50 (SNB-78) was 39.4 µM (inactive) and the GI50 (HOP-18) was 43.6 µM (inactive). For the same compound, the GI50 (DMS-273) was 28.8 µM (inactive), the GI50 (LXFL 529) was 20.4 µM (inactive) and the GI50 (XF498) was 15.5 µM (inactive). For the same compound, the GI50 (DMS-114) was 2.39 µM (inactive) and the GI50 (DLD-1) was 30.8 µM (inactive).

N#Cc1ccccc1NC(=O)c1ccccc1 was tested, and the GI50 (KM-20L2) was > 100 µM (inactive), the GI50 (SNB-78) was > 100 µM (inactive) and the GI50 (HOP-18) was > 100 µM (inactive). For the same compound, the GI50 (DMS-273) was > 100 µM (inactive), the GI50 (XF498) was > 100 µM (inactive) and the GI50 (DLD-1) was > 100 µM (inactive).

N#CCC(=O)N/N=C(/C(=O)Nc1ccccc1)C1C(=O)N(c2ccccc2)N=C1N (stereo not drawn) was tested, and the GI50 (KM-20L2) was > 100 µM (inactive), the GI50 (SNB-78) was > 100 µM (inactive) and the GI50 (HOP-18) was > 100 µM (inactive). The GI50 (DMS-273) was > 100 µM (inactive), the GI50 (LXFL 529) was > 100 µM (inactive) and the GI50 (XF498) was > 100 µM (inactive). For the same compound, the GI50 (DMS-114) was > 100 µM (inactive), the GI50 (DLD-1) was > 100 µM (inactive) and the GI50 (RXF 631) was > 100 µM (inactive).

N#Cc1nc(Nc2ccc(Cl)cc2)sc1N was tested, and the GI50 (KM-20L2) was 17.1 µM (inactive), the GI50 (SNB-78) was 10.8 µM (inactive) and the GI50 (HOP-18) was 29.4 µM (inactive). The GI50 (DMS-273) was 13.2 µM (inactive), the GI50 (LXFL 529) was 3.55 µM (inactive) and the GI50 (XF498) was 14.3 µM (inactive). For the same compound, the GI50 (DMS-114) was 3.07 µM (inactive) and the GI50 (DLD-1) was 17.9 µM (inactive).

CCCCCNC(=O)C1C(=O)N(CCCCC)C(=O)/C1=N\N (stereo not drawn) was tested, and the GI50 (KM-20L2) was 48.6 µM (inactive), the GI50 (SNB-78) was 23.6 µM (inactive) and the GI50 (HOP-18) was 50 µM (inactive). The GI50 (LXFL 529) was 41.2 µM (inactive) and the GI50 (DLD-1) was 70.6 µM (inactive).

CN1CC(C(=O)C2C(=O)c3ccccc3C2=O)C(=O)C(=O)C(C(=O)C2C(=O)c3ccccc3C2=O)C1 (stereo not drawn) was tested, and the GI50 (DMS-273) was > 100 µM (inactive), the GI50 (XF498) was > 100 µM (inactive) and the GI50 (DMS-114) was > 100 µM (inactive). The GI50 (DLD-1) was > 100 µM (inactive) and the GI50 (RXF 631) was > 100 µM (inactive).
